Assay results taken from ChEMBL document CHEMBL4229379, “Synthesis and structure-activity relationship of novel bisindole amidines active against MDR Gram-positive and Gram-negative bacteria” (Eur J Med Chem, 2018).
Values after ≈ are worked out from the molar mass of the structure shown.

Tests used:
[1] = system: Enterococcus faecalis; test: Antibacterial activity against vancomycin-resistant Enterococcus faecalis ATCC 51299 after 18 hrs by CLSI broth microdilution method; type: functional; settings: ATCC 51299, 18 h
[2] = system: Enterococcus faecium; test: Antibacterial activity against vancomycin-sensitive Enterococcus faecium 12-3 after 18 hrs by CLSI broth microdilution method; type: functional; settings: 12-3, 18 h
[3] = system: Klebsiella pneumoniae; test: Antibacterial activity against new delhi metallo-beta-lactamase-1 harboring Klebsiella pneumoniae ATCC BAA-2146 after 18 hrs by CLSI broth microdilution method; type: functional; settings: ATCC BAA-2146, 18 h
[4] = system: Citrobacter freundii; test: Antibacterial activity against Citrobacter freundii ATCC 43864 after 18 hrs by CLSI broth microdilution method; type: functional; settings: ATCC 43864, 18 h
[5] = system: Staphylococcus aureus; test: Antibacterial activity against methicillin-resistant Staphylococcus aureus 12-33 after 18 hrs by CLSI broth microdilution method; type: functional; settings: 12-33, 18 h
[6] = system: Pseudomonas aeruginosa; test: Antibacterial activity against Pseudomonas aeruginosa 12-16 after 18 hrs by CLSI broth microdilution method; type: functional; settings: 12-16, 18 h
[7] = system: Providencia rettgeri; test: Antibacterial activity against Providencia rettgeri ATCC 31052 after 18 hrs by CLSI broth microdilution method; type: functional; settings: ATCC 31052, 18 h
[8] = system: Acinetobacter calcoaceticus; test: Antibacterial activity against Acinetobacter calcoaceticus ATCC 19606 after 18 hrs by CLSI broth microdilution method; type: functional; settings: ATCC 19606, 18 h
[9] = system: Staphylococcus aureus; test: Antibacterial activity against methicillin-sensitive Staphylococcus aureus 15 after 18 hrs by CLSI broth microdilution method; type: functional; settings: Staphylococcus aureus, 15, 18 h
[10] = system: Serratia marcescens; test: Antibacterial activity against Serratia marcescens ATCC 21074 after 18 hrs by CLSI broth microdilution method; type: functional; settings: ATCC 21074, 18 h
[11] = system: Proteus mirabilis; test: Antibacterial activity against Proteus mirabilis 12-6 after 18 hrs by CLSI broth microdilution method; type: functional; settings: 12-6, 18 h
[12] = system: Stenotrophomonas maltophilia; test: Antibacterial activity against Stenotrophomonas maltophilia ATCC 13636 after 18 hrs by CLSI broth microdilution method; type: functional; settings: ATCC 13636, 18 h
[13] = system: Klebsiella pneumoniae; test: Antibacterial activity against extended-spectrum beta-lactamase deficient Klebsiella pneumoniae 7 after 18 hrs by CLSI broth microdilution method; type: functional; settings: Klebsiella pneumoniae, 7, 18 h
[14] = Cytotoxicity against HEK293T cells assessed as reduction in cell viability after 48 hrs by MTS assay; type: cell-based, HEK-293T; settings: human
[15] = system: Enterococcus faecium; test: Antibacterial activity against vancomycin-resistant Enterococcus faecium 12-1 after 18 hrs by CLSI broth microdilution method; type: functional; settings: 12-1, 18 h
[16] = system: Escherichia coli; test: Antibacterial activity against extended-spectrum beta-lactamase deficient Escherichia coli 1515 after 18 hrs by CLSI broth microdilution method; type: functional; settings: Escherichia coli, 1515, 18 h
[17] = system: Enterobacter cloacae; test: Antibacterial activity against Enterobacter cloacae ATCC 43560 after 18 hrs by CLSI broth microdilution method; type: functional; settings: ATCC 43560, 18 h
[18] = system: Klebsiella aerogenes; test: Antibacterial activity against Enterobacter aerogenes ATCC 13048 after 18 hrs by CLSI broth microdilution method; type: functional; settings: ATCC 13048, 18 h
[19] = system: Escherichia coli; test: Antibacterial activity against extended-spectrum beta-lactamase harboring Escherichia coli 12-15 after 18 hrs by CLSI broth microdilution method; type: functional; settings: 12-15, 18 h
[20] = system: Staphylococcus aureus; test: Antibacterial activity against methicillin-sensitive Staphylococcus aureus ATCC 29213 after 18 hrs by CLSI broth microdilution method; type: functional; settings: ATCC 29213, 18 h
[21] = system: Klebsiella pneumoniae; test: Antibacterial activity against extended-spectrum beta-lactamase deficient Klebsiella pneumoniae 12-4 after 18 hrs by CLSI broth microdilution method; type: functional; settings: 12-4, 18 h
[22] = system: Escherichia coli; test: Antibacterial activity against extended-spectrum beta-lactamase deficient Escherichia coli ATCC 25922 after 18 hrs by CLSI broth microdilution method; type: functional; settings: ATCC 25922, 18 h
[23] = system: Staphylococcus epidermidis; test: Antibacterial activity against methicillin-sensitive Staphylococcus epidermidis ATCC 12228 after 18 hrs by CLSI broth microdilution method; type: functional; settings: ATCC 12228, 18 h
[24] = system: Enterococcus faecalis; test: Antibacterial activity against vancomycin-sensitive Enterococcus faecalis ATCC 29212 after 18 hrs by CLSI broth microdilution method; type: functional; settings: ATCC 29212, 18 h
[25] = system: Pseudomonas aeruginosa; test: Antibacterial activity against Pseudomonas aeruginosa PAO1 after 18 hrs by CLSI broth microdilution method; type: functional; settings: PAO1, 18 h
[26] = system: Escherichia coli; test: Antibacterial activity against extended-spectrum beta-lactamase deficient Escherichia coli 12-14 after 18 hrs by CLSI broth microdilution method; type: functional; settings: 12-14, 18 h
[27] = system: Enterococcus faecalis; test: Antibacterial activity against vancomycin-resistant Enterococcus faecalis 09-9 after 18 hrs by CLSI broth microdilution method; type: functional; settings: 09-9, 18 h
[28] = system: Enterococcus faecium; test: Antibacterial activity against vancomycin-resistant Enterococcus faecium ATCC 700221 after 18 hrs by CLSI broth microdilution method; type: functional; settings: ATCC 700221, 18 h
[29] = system: Staphylococcus epidermidis; test: Antibacterial activity against methicillin-resistant Staphylococcus epidermidis 12-8 after 18 hrs by CLSI broth microdilution method; type: functional; settings: 12-8, 18 h
[30] = system: Pseudomonas aeruginosa; test: Antibacterial activity against Pseudomonas aeruginosa ATCC 27853 after 18 hrs by CLSI broth microdilution method; type: functional; settings: ATCC 27853, 18 h
[31] = system: Staphylococcus aureus; test: Antibacterial activity against methicillin-resistant Staphylococcus aureus ATCC 33591 after 18 hrs by CLSI broth microdilution method; type: functional; settings: ATCC 33591, 18 h
[32] = system: Enterococcus faecalis; test: Antibacterial activity against vancomycin-sensitive Enterococcus faecalis 12-5 after 18 hrs by CLSI broth microdilution method; type: functional; settings: 12-5, 18 h
[33] = system: Proteus vulgaris; test: Antibacterial activity against Proteus vulgaris ATCC 29905 after 18 hrs by CLSI broth microdilution method; type: functional; settings: ATCC 29905, 18 h
[34] = system: Klebsiella pneumoniae; test: Antibacterial activity against extended-spectrum beta-lactamase harboring Klebsiella pneumoniae ATCC 700603 after 18 hrs by CLSI broth microdilution method; type: functional; settings: Klebsiella pneumoniae, 700603, 18 h
[35] = system: Staphylococcus aureus; test: Antibacterial activity against methicillin-sensitive Staphylococcus aureus 12-28 after 18 hrs by CLSI broth microdilution method; type: functional; settings: 12-28, 18 h
[36] = system: Klebsiella pneumoniae; test: Antibacterial activity against extended-spectrum beta-lactamase harboring Klebsiella pneumoniae 12-8 after 18 hrs by CLSI broth microdilution method; type: functional; settings: 12-8, 18 h
[37] = system: Staphylococcus epidermidis; test: Antibacterial activity against methicillin-sensitive Staphylococcus epidermidis 12-6 after 18 hrs by CLSI broth microdilution method; type: functional; settings: 12-6, 18 h

Row | Structure (SMILES) | MIC [1] | MIC [2] | MIC [3] | MIC [4] | MIC [5] | MIC [6] | MIC [7] | MIC [8] | MIC [9] | MIC [10] | MIC [11] | MIC [12] | MIC [13] | MIC [15] | MIC [16] | MIC [17] | MIC [18] | MIC [19] | MIC [20] | MIC [21] | other results
1 | CNC(=N)c1ccc2cc(-c3ccc(-c4cc5ccc(C(=N)NC)cc5[nH]4)cc3)[nH]c2c1 | 2 µg/mL (≈ 4.76 µM) | 2 µg/mL (≈ 4.76 µM) | 64 µg/mL (≈ 152 µM) | 16 µg/mL (≈ 38 µM) | 0.25 µg/mL (≈ 0.595 µM) | 64 µg/mL (≈ 152 µM) | 64 µg/mL (≈ 152 µM) | 128 µg/mL (≈ 304 µM) | 0.25 µg/mL (≈ 0.595 µM) | 64 µg/mL (≈ 152 µM) | 64 µg/mL (≈ 152 µM) | 16 µg/mL (≈ 38 µM) | 16 µg/mL (≈ 38 µM) | 0.5 µg/mL (≈ 1.19 µM) | 16 µg/mL (≈ 38 µM) | 8 µg/mL (≈ 19 µM) | 16 µg/mL (≈ 38 µM) | 8 µg/mL (≈ 19 µM) | 0.25 µg/mL (≈ 0.595 µM) | 32 µg/mL (≈ 76.1 µM) | CC50 at 48 h [14]: 28 µg/mL (≈ 66.6 µM); MIC [22]: 4 µg/mL (≈ 9.51 µM); MIC [23]: 0.12 µg/mL (≈ 0.285 µM); MIC [24]: 2 µg/mL (≈ 4.76 µM); MIC [25]: 64 µg/mL (≈ 152 µM); MIC [26]: 8 µg/mL (≈ 19 µM); MIC [27]: 1 µg/mL (≈ 2.38 µM); MIC [28]: 0.5 µg/mL (≈ 1.19 µM); MIC [29]: 0.25 µg/mL (≈ 0.595 µM); MIC [30]: 16 µg/mL (≈ 38 µM); MIC [31]: 0.25 µg/mL (≈ 0.595 µM); MIC [32]: 2 µg/mL (≈ 4.76 µM); MIC [33]: 64 µg/mL (≈ 152 µM); MIC [34]: 64 µg/mL (≈ 152 µM); MIC [35]: 0.25 µg/mL (≈ 0.595 µM); MIC [36]: 32 µg/mL (≈ 76.1 µM); MIC [37]: 0.12 µg/mL (≈ 0.285 µM)
2 | CN(C)C(=N)c1ccc2cc(-c3ccc(Oc4ccc(-c5cc6ccc(C(=N)N(C)C)cc6[nH]5)cc4)cc3)[nH]c2c1 | 1 µg/mL (≈ 1.85 µM) | 2 µg/mL (≈ 3.7 µM) | 8 µg/mL (≈ 14.8 µM) | 8 µg/mL (≈ 14.8 µM) | 0.25 µg/mL (≈ 0.462 µM) | > 128 µg/mL | 8 µg/mL (≈ 14.8 µM) | > 128 µg/mL | 0.25 µg/mL (≈ 0.462 µM) | 32 µg/mL (≈ 59.2 µM) | 32 µg/mL (≈ 59.2 µM) | 16 µg/mL (≈ 29.6 µM) | 8 µg/mL (≈ 14.8 µM) | 2 µg/mL (≈ 3.7 µM) | 4 µg/mL (≈ 7.4 µM) | 64 µg/mL (≈ 118 µM) | 8 µg/mL (≈ 14.8 µM) | 8 µg/mL (≈ 14.8 µM) | 0.25 µg/mL (≈ 0.462 µM) | 8 µg/mL (≈ 14.8 µM) | MIC [22]: 4 µg/mL (≈ 7.4 µM); MIC [23]: 0.125 µg/mL (≈ 0.231 µM); MIC [24]: 0.5 µg/mL (≈ 0.925 µM); MIC [25]: > 128 µg/mL; MIC [26]: 8 µg/mL (≈ 14.8 µM); MIC [27]: 2 µg/mL (≈ 3.7 µM); MIC [28]: 2 µg/mL (≈ 3.7 µM); MIC [29]: 0.25 µg/mL (≈ 0.462 µM); MIC [30]: 128 µg/mL (≈ 237 µM); MIC [31]: 0.25 µg/mL (≈ 0.462 µM); MIC [32]: 2 µg/mL (≈ 3.7 µM); MIC [33]: 8 µg/mL (≈ 14.8 µM); MIC [34]: 8 µg/mL (≈ 14.8 µM); MIC [35]: 0.25 µg/mL (≈ 0.462 µM); MIC [36]: 8 µg/mL (≈ 14.8 µM); MIC [37]: 0.25 µg/mL (≈ 0.462 µM)
